Measured values as given in US20240309038A1, “NOVEL GALACTOSIDE INHIBITOR OF GALECTINS” (GALECTO BIOTECH AB, priority 2020, published 2024).

target: Gal-3 (Homo sapiens, UniProt P17931); experiment: Fluorescence anisotropy assay, inhibition of galectin / fluorescein tagged saccharide probe interaction; format: binding
Experimental: The affinity of Example 1-59 for galectins were determined by a fluorescence anisotropy assay where the compound was used as an inhibitor of the interaction between galectin and a fluorescein tagged saccharide probe as described Sörme, P., Kahl-Knutsson, B., Huflejt, M., Nilsson, U. J., and Leffler H. (2004) Fluorescence polarization as an analytical tool to evaluate galectin-ligand interactions. Anal. Biochem. 334: 36-47, (Sarme et al., 2004)

Sequence of Gal-3 (P17931 whole entry, species assumed): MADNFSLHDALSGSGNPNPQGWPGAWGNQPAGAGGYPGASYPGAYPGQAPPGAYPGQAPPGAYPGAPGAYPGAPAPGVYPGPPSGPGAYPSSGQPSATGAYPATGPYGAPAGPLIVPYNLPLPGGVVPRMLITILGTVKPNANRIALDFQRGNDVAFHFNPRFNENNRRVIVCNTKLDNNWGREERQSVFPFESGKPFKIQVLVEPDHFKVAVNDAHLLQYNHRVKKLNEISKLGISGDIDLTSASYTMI

| Compound | Kd [nM] |
| --- | --- |
| Cc1nnc([C@@H]2OC(CO)[C@H](O)C(n3cc(-c4cc(F)c(Cl)c(F)c4)cn3)C2O)n1-c1cc(Cl)ccc1C(F)(F)F (single isomer, unassigned) [Example 10, 1-{3-{3-[4-(4-Chloro-3,5-difluorophenyl)-1H-1,2-pyrazol-1-yl]-3-deoxy-β-D-galactopyranosyl}-5-methyl-4H-1,2,4-triazol-4-yl}-5-chloro-2-(trifluoromethyl)benzene] | 370 |
| Cc1nnc([C@@H]2OC(CO)[C@H](O)C(n3cc(-c4cc(F)c(Cl)c(F)c4)cn3)C2O)n1-c1cc(Cl)ccc1C(F)(F)F (single isomer, unassigned) [Example 11, 1-{3-{3-[4-(4-Chloro-3,5-difluorophenyl)-1H-1,2-pyrazol-1-yl]-3-deoxy-β-D-galactopyranosyl}-5-methyl-4H-1,2,4-triazol-4-yl}-5-chloro-2-(trifluoromethyl)benzene] | 7 |
| Cc1nc([C@@H]2OC(CO)[C@H](O)C(n3cc(-c4cc(F)c(F)c(F)c4)cn3)C2O)n(-c2cc(Cl)ccc2C(F)(F)F)n1 (stereo in doubt) [Example 3, 5-Chloro-1-{5-{3-deoxy-3-[4-(3,4,5-trifluorophenyl)-1H-1,2-pyrazol-1-yl]-β-D-galactopyranosyl}-3-methyl-1H-1,2,4-triazol-1-yl}-2-(trifluoromethyl)benzene] | 9 |
| Cc1nc([C@@H]2OC(CO)[C@H](O)C(n3cc(-c4cc(F)c(F)c(F)c4)cn3)C2O)n(-c2cc(-c3cc(F)c(F)c(F)c3)ccc2C(F)(F)F)n1 (stereo in doubt) [Example 4, 1-{5-{3-Deoxy-3-[4-(3,4,5-trifluorophenyl)-1H-1,2-pyrazol-1-yl]-β-D-galactopyranosyl}-3-methyl-1H-1,2,4-triazol-1-yl}-2-(trifluoromethyl)-2-(3,4,5-trifluorophenyl)benzene] | 200 |
| Cc1nc([C@@H]2OC(CO)[C@H](O)C(n3cc(-c4cccc(F)n4)cn3)C2O)n(-c2cc(Cl)ccc2C(F)(F)F)n1 (stereo in doubt) [Example 6, 5-Chloro-1-{5-{3-deoxy-3-[4-(6-fluoropyridin-2-yl)-1H-1,2-pyrazol-1-yl]-β-D-galactopyranosyl}-3-methyl-1H-1,2,4-triazol-1-yl}-2-(trifluoromethyl)benzene] | 130 |
| Cc1nc([C@@H]2OC(CO)[C@H](O)C(n3cc(-c4cc(F)c(Cl)c(F)c4)c(C)n3)C2O)n(-c2cc(Cl)ccc2C(F)(F)F)n1 (stereo in doubt) [Example 12, 1-{5-{3-[4-(4-Chloro-3,5-difluorophenyl)-3-methyl-1H-1,2-pyrazol-1-yl]-3-deoxy-β-D-galactopyranosyl}-3-methyl-1H-1,2,4-triazol-1-yl}-5-chloro-2-(trifluoromethyl)benzene] | 11 |
| Cc1nc([C@@H]2OC(CO)[C@H](O)C(n3cc(-c4cc(F)c(C)cn4)cn3)C2O)n(-c2cc(Cl)ccc2C(F)(F)F)n1 (stereo in doubt) [Example 15, 5-Chloro-1-{5-{3-deoxy-3-[4-(4-fluoro-5-methylpyridin-2-yl)-1H-1,2-pyrazol-1-yl]-β-D-galactopyranosyl}-3-methyl-1H-1,2,4-triazol-1-yl}-2-(trifluoromethyl)benzene] | 13 |
| Cc1nc([C@@H]2OC(CO)[C@H](O)C(n3cc(-c4cc(F)c(F)c(F)c4)cn3)C2O)n(-c2cncc(Br)c2)n1 (stereo in doubt) [Example 19, 5-Bromo-3-{5-{3-deoxy-3-[4-(3,4,5-trifluorophenyl)-1H-1,2-pyrazol-1-yl]-β-D-galactopyranosyl}-3-methyl-1H-1,2,4-triazol-1-yl}pyridine] | 25 |
| Cc1nc([C@@H]2OC(CO)[C@H](O)C(n3cc(-c4cc(F)c(F)c(F)c4)cn3)C2O)n(-c2cc(Cl)cnc2C(F)(F)F)n1 (stereo in doubt) [Example 20, 5-Chloro-3-{5-{3-deoxy-3-[4-(3,4,5-trifluorophenyl)-1H-1,2-pyrazol-1-yl]-β-D-galactopyranosyl}-3-methyl-1H-1,2,4-triazol-1-yl}-2-(trifluoromethyl)pyridine] | 11 |
| Cc1nc([C@@H]2OC(CO)[C@H](O)C(n3cc(-c4cc(F)c(F)c(F)c4)cn3)C2O)n(-c2cc(Br)cnc2C#N)n1 (stereo in doubt) [Example 22, 5-Bromo-2-cyano-3-{5-{3-deoxy-3-[4-(3,4,5-trifluorophenyl)-1H-1,2-pyrazol-1-yl]-β-D-galactopyranosyl}-3-methyl-1H-1,2,4-triazol-1-yl}pyridine] | 33 |
| Cc1nc([C@@H]2OC(CO)[C@H](O)C(n3cc(-c4cc(F)c(F)c(F)c4)cn3)C2O)n(-c2cc(Br)ccc2C(F)(F)F)n1 (stereo in doubt) [Example 24, 5-Bromo-1-{5-{3-deoxy-3-[4-(3,4,5-trifluorophenyl)-1H-1,2-pyrazol-1-yl]-β-D-galactopyranosyl}-3-methyl-1H-1,2,4-triazol-1-yl}-2-(trifluoromethyl)benzene] | 2 |
| Cc1nc([C@@H]2OC(CO)[C@H](O)C(n3cc(-c4cc(F)c(F)c(F)c4)cn3)C2O)n(-c2cc(Br)cnc2C(F)(F)F)n1 (stereo in doubt) [Example 25, 5-Bromo-3-{5-{3-deoxy-3-[4-(3,4,5-trifluorophenyl)-1H-1,2-pyrazol-1-yl]-β-D-galactopyranosyl}-3-methyl-1H-1,2,4-triazol-1-yl}-2-(trifluoromethyl)pyridine] | 11 |
| Cc1nc([C@@H]2OC(CO)[C@H](O)C(n3cc(-c4cc(F)c(F)c(F)c4)cn3)C2O)n(-c2cc(Br)ccc2C#N)n1 (stereo in doubt) [Example 26, 5-Bromo-2-cyano-1-{5-{3-deoxy-3-[4-(3,4,5-trifluorophenyl)-1H-1,2-pyrazol-1-yl]-β-D-galactopyranosyl}-3-methyl-1H-1,2,4-triazol-1-yl}benzene] | 15 |
| Cc1nc([C@@H]2OC(CO)[C@H](O)C(n3cc(-c4cc(F)c(F)c(F)c4)cn3)C2O)n(-c2cc(Cl)ccc2C#N)n1 (stereo in doubt) [Example 27, 5-Chloro-2-cyano-1-{5-{3-deoxy-3-[4-(3,4,5-trifluorophenyl)-1H-1,2-pyrazol-1-yl]-β-D-galactopyranosyl}-3-methyl-1H-1,2,4-triazol-1-yl}benzene] | 37 |
| Cc1nc([C@@H]2OC(CO)[C@H](O)C(n3cc(-c4cc(F)c(Cl)c(F)c4)cn3)C2O)n(-c2cc(Cl)cnc2C(F)(F)F)n1 (stereo in doubt) [Example 28, 3-{5-{3-[4-(4-Chloro-3,5-difluorophenyl)-1H-1,2-pyrazol-1-yl]-3-deoxy-β-D-galactopyranosyl}-3-methyl-1H-1,2,4-triazol-1-yl}-5-chloro-2-(trifluoromethyl)pyridine] | 15 |

Continued by falling Kd, values first:

| Kd [nM] | Compound |
| --- | --- |
| 140 | Cc1nc([C@@H]2OC(CO)[C@H](O)C(n3cc(-c4cc(C)c(Cl)cn4)cn3)C2O)n(-c2cc(Cl)ccc2C(F)(F)F)n1 (stereo in doubt) [Example 16, 1-{5-{3-[4-(5-Chloro-4-methylpyridin-2-yl)-1H-1,2-pyrazol-1-yl]-3-deoxy-β-D-galactopyranosyl}-3-methyl-1H-1,2,4-triazol-1-yl}-5-chloro-2-(trifluoromethyl)benzene] |
| 82 | Cc1nc([C@@H]2OC(CO)[C@H](O)C(n3cc(-c4cc(F)ccn4)cn3)C2O)n(-c2cc(Cl)ccc2C(F)(F)F)n1 (stereo in doubt) [Example 7, 5-Chloro-1-{5-{3-deoxy-3-[4-(4-fluoropyridin-2-yl)-1H-1,2-pyrazol-1-yl]-β-D-galactopyranosyl}-3-methyl-1H-1,2,4-triazol-1-yl}-2-(trifluoromethyl)benzene] |
| 82 | Cc1nc([C@@H]2OC(CO)[C@H](O)C(n3cc(-c4cc(F)c(F)c(F)c4)cn3)C2O)n(-c2cc(Cl)cnc2C#N)n1 (stereo in doubt) [Example 21, 5-Chloro-2-cyano-3-{5-{3-deoxy-3-[4-(3,4,5-trifluorophenyl)-1H-1,2-pyrazol-1-yl]-β-D-galactopyranosyl}-3-methyl-1H-1,2,4-triazol-1-yl}pyridine] |
| 60 | C#Cc1c(F)cc(-c2cnn(C3C(O)[C@H](c4nc(C)nn4-c4cc(Cl)ccc4C(F)(F)F)OC(CO)[C@@H]3O)c2)cc1F (stereo in doubt) [Example 17, 5-Chloro-1-{5-{3-deoxy-3-[4-(4-ethynyl-3,5-difluorophenyl)-1H-1,2-pyrazol-1-yl]-β-D-galactopyranosyl}-3-methyl-1H-1,2,4-triazol-1-yl}-2-(trifluoromethyl)benzene] |
| 28 | CCOC(=O)c1nn(C2C(O)[C@H](c3nc(C)nn3-c3cc(Cl)ccc3C(F)(F)F)OC(CO)[C@@H]2O)cc1-c1cc(F)c(Cl)c(F)c1 (stereo in doubt) [Example 29, 1-{5-{3-[4-(4-Chloro-3,5-difluorophenyl)-3-ethoxycarbonyl-1H-1,2-pyrazol-1-yl]-3-deoxy-β-D-galactopyranosyl}-3-methyl-1H-1,2,4-triazol-1-yl}-5-chloro-2-(trifluoromethyl)benzene] |
| 26 | C#CCc1c(F)cc(-c2cnn(C3C(O)[C@H](c4nc(C)nn4-c4cc(Cl)ccc4C(F)(F)F)OC(CO)[C@@H]3O)c2)cc1F (stereo in doubt) [Example 18, 5-Chloro-1-{5-{3-deoxy-3-{4-[3,5-difluoro-4-(2-propyn-1-yl)phenyl]-1H-1,2-pyrazol-1-yl}-β-D-galactopyranosyl}-3-methyl-1H-1,2,4-triazol-1-yl}-2-(trifluoromethyl)benzene] |
| 24 | Cc1nc([C@@H]2OC(CO)[C@H](O)C(n3cc(-c4cc(F)c(Cl)cn4)cn3)C2O)n(-c2cc(Cl)ccc2C(F)(F)F)n1 (stereo in doubt) [Example 14, 1-{5-{3-[4-(5-Chloro-4-fluoropyridin-2-yl)-1H-1,2-pyrazol-1-yl]-3-deoxy-β-D-galactopyranosyl}-3-methyl-1H-1,2,4-triazol-1-yl}-5-chloro-2-(trifluoromethyl)benzene] |
